Experiments:
[1] = tested on: PANC1 cells; test: Cell growth, PANC1; format: cell-based, human; conditions: 0.6 μM, after 24 hours of treatment
From the text: FIG. 63 is a graph showing the drug response of PANC1 cells following metarrestin treatment. […] Mean cell viability values are plotted with standard error of the mean (SEM) from at least 2 independent experiments done in triplicate.

[2] = tested on: eEF1A; test: Affinity purification with biotin-conjugated metarrestin and competition; format: binding
From the text: FIG. 35 is a Western blot illustrating that metarrestin effectively outcompeted recombinant eEF1A from binding to anchored biotinylated metarrestin-eEF1A complex. […] Increased eEF1A2 enhances PNCs and metastasis formation.

[3] = tested on: KPC mice; test: Veterinary histopathology and clinical chemistry, KPC mice; format: in vivo
[4] = tested on: RPA194 and UBF occupancy on rDNA; test: Quantitative ChIP on rDNA; format: cell-based; conditions: HeLa cells
Method: ChIP-qPCR: 2-5×10^7 cells were used for each ChIP assay according to previously described protocols. Briefly, HeLa cells with or without metarrestin treatment were crosslinked with 1% formaldehyde for 10 min at room temperature with rotation, and then crosslinking was quenched by the addition of glycine. Fixed chromatin was sonicated by Covaris and used for immunoprecipitation with the indicated antibody. Isolated DNA was analyzed by qPCR using SYBR green on CFX Connect Real-Time PCR Detection System (BioRad). The comparative cycle threshold method was applied to evaluate occupancy from replicate PCR reactions relative to the level of input. […]
Psoralen crosslinks active accessible DNA under UV light without displacing nucleosomes or transcription factors, or changing chromatin states. […] To examine the interactions between Pol I transcription factors and rDNA, quantitative ChIP experiments were carried out using primer sets across promoter and coding regions of rDNA (FIG. 29-30E).

[5] = tested on: normal mouse hepatocytes; test: Nucleolar volume by EM in normal liver tissue; format: in vivo; conditions: treated normal mouse hepatocytes
Method: FIGS. 49A-49C are graphs showing quantitative evaluation of the EM images of FIG. 48.
The nucleolar disruption was reversible within 48 hours upon withdrawal of metarrestin (FIG. 47). Similar disruptions were observed among other treated cell lines, including PANC1 and PC3M cells (FIG. 48), primary tumor, and liver metastatic tissues in the PANC1 xenograft model (FIG. 21, right panels). […] The segregation of the nucleolar compartments observed by EM is believed to correspond to the nucleolar capping structures detected by immunofluorescence of nucleolar proteins (FIGS. 21A-21C, 23, and 50). The coupling of nucleolar segregation with PNC loss was confirmed across several cell lines by immunolabeling with antibodies against the nucleolar Pol I transcription initiation factors, UBF (upstream binding transcription factor) (FIGS. 23 and 50), or Pol I polymerase, RPA194 (FIG. 51). Factors involved in ribosome maturation, such as fibrillarin or NOPP140 (FIGS. 51 and 52) were similarly reorganized. In contrast, UBF distribution was not changed when the normal human fibroblast GM02153 cell line was treated with metarrestin at the same concentration (FIG. 53).

[6] = female, KPC, mouse, in vivo, 3 months
[7] = male, KPC, mouse, in vivo, 3 months

SMILES: N=c1c2c(-c3ccccc3)c(-c3ccccc3)n(Cc3ccccc3)c2ncn1[C@H]1CC[C@H](O)CC1 [metarrestin]
- PANC1 cell growth [1]: did not affect PC3M or PANC1 cell growth
- Binding to eEF1A (competition and proteomic analysis) [2]: metarrestin-binding protein
- Ileum segmented filamentous bacteria ([3]; KPC-Metarrestin Female F01): 3/3
- Ileum segmented filamentous bacteria ([3]; KPC-Metarrestin Male M01): 4/4
- Adrenal hyperplasia, subcapsular cell [3, 6]: 2/3
- Duodenum dilatation [3, 6]: 3/3
- Femur marrow hyperplasia, granulocytic [3, 6]: 1/3
- Gall Bladder hyperplasia, papillary [3, 6]: 3/3
- Kidney hydronephrosis [3, 6]: 1/3
- Kidney mineralization [3, 6]: 1/3
- Liver deformity [3, 6]: 1/3
- Liver inflammation, subacute [3, 6]: 3/3
- Lung lymphocytic infiltrate [3, 6]: 3/3
- Pancreas duct, dilation [3, 6]: 3/3
- Pancreas neoplasm, graded [3, 6]: 3/3
- Salivary Gland lymphocytic infiltrate [3, 6]: 2/3
- Spleen extramedullary hematopoiesis, erythrocytic, increased erythropoiesis [3, 6]: 1/3
- Spleen fibrosis [3, 6]: 1/3
- Spleen melanin [3, 6]: 1/3
- Stomach, glandular, hyperplasia, foveolar cells [3, 6]: 3/3
- Thyroid ectopic thymus [3, 6]: 1/3
- Vertebra hyperplasia, granulocytic, marrow [3, 6]: 1/3
- Adrenal lipogenic pigment [3, 7]: 3/4
- Cecum proliferative typhlitis [3, 7]: 1/4
- Duodenum dilatation [3, 7]: 1/4
- Duodenum hyperplasia, crypt [3, 7]: 1/4
- Femur marrow hyperplasia, granulocytic [3, 7]: 4/4
- Gall Bladder hyperplasia, papillary [3, 7]: 4/4
- Heart dilation, atrium [3, 7]: 1/4
- Heart mineralization [3, 7]: 1/4
- Kidney mineralization [3, 7]: 1/4
- Kidney vacuolation. proximal tubule [3, 7]: 1/4
- LN, mandibular hyperplasia, lymphoid [3, 7]: 1/4
- LN, mandibular plasmacytosis [3, 7]: 1/4
- Liver inflammation, subacute [3, 7]: 2/4
- Liver lymphocytic infiltrate [3, 7]: 2/4
- Lung lymphocytic infiltrate [3, 7]: 3/4
- Pancreas duct, dilation [3, 7]: 4/4
- Pancreas neoplasm, graded [3, 7]: 4/4
- Skin/Subcutis inflammation, chronic active [3, 7]: 1/4
- Spleen extramedullary hematopoiesis, erythrocytic, increased erythropoiesis [3, 7]: 1/4
- Spleen fibrosis [3, 7]: 2/4
- Stomach, glandular, hyperplasia, foveolar cells [3, 7]: 2/4
- Stomach, nonglandular, erosion [3, 7]: 1/4
- Thyroid hyperplasia, papillary [3, 7]: 1/4
- Vertebra hyperplasia, granulocytic, marrow [3, 7]: 4/4
- Histopathological or laboratory abnormalities ([3]; mouse, in vivo, 10 mg/kg): failed to discern any histopathological or laboratory abnormalities
- Histopathological or laboratory abnormalities ([3]; mouse, in vivo, po, 25 mg/kg): failed to discern any histopathological or laboratory abnormalities
- UBF binding to rDNA [4]: without significant impact on UBF binding
- RPA194 occupancy on rDNA promoter and coding regions ([4]; p<0.01): significantly reduced RPA194 occupancy
- Nucleolar volume [5]: not changed
